The text below walks through data of US20210338719A1 (SOCIETE DES PRODUITS NESTLE S.A., priority 2017, published 2021).

A short description of this data set: Oxidation of LC-PUFAs caused by iron source. It is filed as physicochemical. Conditions: iron source in composition containing LC-PUFAs.

Take `O.O=S(=O)([O-])[O-].[Fe+2]` [ferrous sulphate monohydrate]: the “Oxidation of LC-PUFAs” value is “no significant oxidation of LC-PUFAs”. On to `O.O.O.O.O.O.O.O=S(=O)([O-])[O-].[Fe+2]` [ferrous sulphate heptahydrate], for which the “Oxidation of LC-PUFAs” value is “significant oxidation of LC-PUFAs”.
